Measured values: patent publication US9896445B2, “Heterocyclic inhibitors of ERK1 and ERK2 and their use in the treatment of cancer” (Asana Biosciences, LLC, priority 2015, dated 2018)
pIC50: −log10 of the molar value.

Legend:
[1] = target: T1, ERK1 (Homo sapiens, UniProt P27361); assay: ERK1 HTRF (biochemical) assay
T1 construct: purchased Jubilant Biosys
Method: (§1) ERK1 and ERK2 HTRF (Biochemical) Assays
These assays employed a homogeneous time resolved fluorescence (HTRF) technique. […] The plate was incubated at room temperature for 60 min with shaking. […] The IC50 values (half maximal inhibitory concentration values) were subsequently determined using a sigmoidal dose-response curve (variable slope) in GraphPad Prism® 5 software.

[2] = target: T2, ERK2 (Homo sapiens, UniProt P28482); assay: ERK2 HTRF (biochemical) assay
T2 construct: purchased Jubilant Biosys
Method: as §1
These assays employed a homogeneous time resolved fluorescence (HTRF) technique. The compounds were serially diluted by half-log with concentrations ranging from 0.0005 to 10 uM in the assay buffer (50 mM Tris pH=7.5, 1 mM EGTA, 2 mM DTT, 10 mM MgCl2, 0.1% Tween-20) and 20 uL of substrate-ATP mix [1 uM Biotin-LC-Myelin Basic Protein (MBP) derivatized Peptide (Anaspec)-24 uM ATP (Sigma)] was added to each well of the assay plate. Then 10 uL of enzyme mix [25 nM ERK1 or ERK2 (Jubilant Biosys) in assay buffer] was added to each well. The plate was incubated at room temperature for 60 min with shaking. The HTRF mix [625 nM LANCE® Ultra Europium-anti-phospho-MBP (Perkin Elmer) and 2 nM Phycolink® Streptavidin-Allophycocyanin (SA-APC) (Prozyme) in HTRF buffer (50 mM Tris-HCl pH=7.5, 100 mM NaCl, 0.1% BSA, 0.05% Tween20, 0.5 mM EDTA)] was prepared and 75 uL of this mix was added to the HTRF plate. After incubation for 60 min at room temperature, 10 uL of the reaction mixture was transferred to the HTRF assay plate and incubated for 45 min at room temperature with shaking. Plate was read using Pherastar in HTRF mode (excitation 337 nm, emission 665 & 620 nm). The IC50 values (half maximal inhibitory concentration values) were subsequently determined using a sigmoidal dose-response curve (variable slope) in GraphPad Prism® 5 software.

T2 sequence (P28482 whole entry): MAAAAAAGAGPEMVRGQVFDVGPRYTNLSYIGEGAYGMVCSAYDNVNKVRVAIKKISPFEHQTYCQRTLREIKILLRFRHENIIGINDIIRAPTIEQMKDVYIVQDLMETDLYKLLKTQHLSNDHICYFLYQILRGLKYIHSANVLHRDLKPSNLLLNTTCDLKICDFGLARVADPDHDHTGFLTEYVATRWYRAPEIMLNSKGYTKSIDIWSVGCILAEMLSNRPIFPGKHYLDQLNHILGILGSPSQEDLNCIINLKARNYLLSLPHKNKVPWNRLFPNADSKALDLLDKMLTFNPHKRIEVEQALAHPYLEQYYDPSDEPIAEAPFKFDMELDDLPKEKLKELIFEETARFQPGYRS
T1 sequence (P27361 whole entry): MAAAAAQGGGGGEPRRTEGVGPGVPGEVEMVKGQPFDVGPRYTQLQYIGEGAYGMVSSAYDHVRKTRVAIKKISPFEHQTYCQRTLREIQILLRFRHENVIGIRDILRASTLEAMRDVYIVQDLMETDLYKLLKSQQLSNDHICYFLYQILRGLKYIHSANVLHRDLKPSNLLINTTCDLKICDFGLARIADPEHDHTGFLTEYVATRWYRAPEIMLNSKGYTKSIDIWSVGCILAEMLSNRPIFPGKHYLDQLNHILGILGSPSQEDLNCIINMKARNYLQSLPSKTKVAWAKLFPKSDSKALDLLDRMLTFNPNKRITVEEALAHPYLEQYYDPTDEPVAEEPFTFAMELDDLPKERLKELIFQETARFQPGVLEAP

| Structure (SMILES) | pIC50 ([1]; HTRF) | pIC50 ([2]; HTRF) | pIC50 ([1]; HTRF biochemical assay) | pIC50 ([2]; HTRF biochemical assay) |
| --- | --- | --- | --- | --- |
| Cc1cnc(NC2CCOCC2)nc1-n1cnc(C(=O)NCc2ccc(Cl)cc2CO)c1 [Example 343, N-(4-chloro-2-hydroxymethyl-benzyl)-1-(5-methyl-2-((tetrahydro-2H-pyran-4-yl)amino)-pyrimidin-4-yl)-1H-imidazole-4-carboxamide] | – | – | > 7.30 | ≥ 7.30 |
| Cc1cnc(NC2CCOCC2)nc1-n1cnc(C(=O)N[C@@H](CN)c2cccc(Cl)c2)c1 (single isomer, unassigned) [Compound 225b] | > 7.30 | ≥ 7.30 | – | – |
| CC[C@H](CO)Nc1cc(-n2cnc(C(=O)NC(CO)c3cccc(Cl)c3)c2)c(Cl)cn1 (stereo partly drawn) [Compound 168, 1-(5-chloro-2-(((R)-1-hydroxybutan-2-yl)amino)pyridin-4-yl)-N-(1-(3-chlorophenyl)-2-hydroxyethyl)-1H-imidazole-4-carboxamide] | > 7.30 | 7.00 to 7.30 | – | – |
| Cc1cnc(Nc2ccc3occc3c2)nc1-n1cnc(C(=O)NC(CO)c2cccc(Cl)c2)c1 (stereo not shown) [Compound 132, 1-(2-(benzofuran-5-ylamino)-5-methylpyrimidin-4-yl)-N-(1-(3-chlorophenyl)-2-hydroxyethyl)-1H-imidazole-4-carboxamide] | > 7.30 | ≥ 7.30 | – | – |
| Cc1cnc(Nc2ccc(F)cc2)nc1-n1cnc(C(=O)NCc2cccc(Cl)c2CO)c1 [Example 262, N-(3-chloro-2-(hydroxymethyl)benzyl)-1-(2-((4-fluorophenyl)-amino)-5-methyl-pyrimidin-4-yl)-1H-imidazole-4-carbox amide] | > 7.30 | ≥ 7.30 | – | – |
| Cc1cnc(NC2CCOC(C)C2)nc1-n1cnc(C(=O)N[C@H](CO)c2cccc(Cl)c2)c1 (stereo partly drawn) [Compound 251, N-((S)-1-(3-chlorophenyl)-2-hydroxyethyl)-1-(5-methyl-2-((2-methyltetrahydro-2H-pyran-4-yl)amino)pyrimidin-4-yl)-1H-imidazole-4-carboxamide] | > 7.30 | ≥ 7.30 | – | – |
| Cc1cnc(Nc2ccc(F)cc2)nc1-n1cnc(C(=O)NC(CO)c2cccc(Cl)c2)c1 (stereo not shown) [Compound 155, N-(1-(3-chlorophenyl)-2-hydroxyethyl)-1-(2-((4-fluoro-phenyl)amino)-5-methylpyrimidin-4-yl)-1H-imidazole-4-carboxamide] | > 7.30 | ≥ 7.30 | – | – |
| Cc1cnc(NC2CCOC2)cc1-n1ccc(C(=O)NC(CO)c2cccc(Cl)c2)c1 (stereo not shown) [Compound 165, N-(1-(3-chloro-phenyl)-2-hydroxyethyl)-1-(5-methyl-2-((tetrahydrofuran-3-yl)amino)pyridin-4-yl)-1H-pyrrole-3-carboxamide] | > 7.30 | ≥ 7.30 | – | – |
| Cc1cnc(Nc2ccc3c(c2)OC(F)(F)O3)nc1-n1ccc(C(=O)NC(CO)c2ccccc2)c1 (stereo not shown) [Compound 63, 1-(2-((2,2-difluoro-benzo[d][1,3]dioxol-5-yl)amino)-5-methylpyrimidin-4-yl)-N-(2-hydroxy-1-phenylethyl)-1H-pyrrole-3-carboxamide] | > 7.30 | ≥ 7.30 | – | – |
| Cc1cnc(NC2CCOc3ccccc32)nc1-n1cnc(C(=O)N[C@H](CN)c2cccc(Cl)c2)c1 (stereo partly drawn) [Example 271, N-((S)-2-amino-1-(3-chlorophenyl)ethyl)-1-(2-(chroman-4-ylamino)-5-methylpyrimidin-4-yl)-1H-imidazole-4-carboxamide] | > 7.30 | ≥ 7.30 | – | – |
| Cc1cnc(Nc2ccc(F)cc2)nc1-n1cnc(C(=O)NC(CN)c2cccc(Cl)c2)c1 (stereo not shown) [Compound 177, N-(2-amino-1-(3-chlorophenyl)ethyl)-1-(2-((4-fluoro-phenyl)amino)-5-methylpyrimidin-4-yl)-1H-imidazole-4-carboxamide] | > 7.30 | ≥ 7.30 | – | – |

Results, then the compound that gave them:

| pIC50 ([1]; HTRF) | pIC50 ([2]; HTRF) | pIC50 ([1]; HTRF biochemical assay) | pIC50 ([2]; HTRF biochemical assay) | Structure (SMILES) |
| --- | --- | --- | --- | --- |
| > 7.30 | ≥ 7.30 | – | – | Cc1cnc(N[C@@H]2CCOC2)nc1-n1ccc(C(=O)N[C@H](CO)c2cccc(Cl)c2)c1 [Compound 162, N-((S)-1-(3-chlorophenyl)-2-hydroxyethyl)-1-(5-methyl-2-(((R)-tetrahydrofuran-3-yl)amino)pyrimidin-4-yl)-1H-pyrrole-3-carboxamide] |
| > 7.30 | ≥ 7.30 | – | – | Cc1cnc(Nc2ccc(F)cc2Cl)nc1-n1cnc(C(=O)N[C@H](CO)c2cccc(Cl)c2)c1 [Compound 241, (S)-1-(2-((2-chloro-4-fluorophenyl)-amino)-5-methyl-pyrimidin-4-yl)-N-(1-(3-chlorophenyl)-2-hydroxyethyl)-1H-imidazole-4-carboxamide] |
| 6.30 to 7.00 | 6.30 to 7.00 | – | – | Cc1cnc(NCc2cccnc2)cc1-n1ccc(C(=O)NC(CO)c2ccc(F)c(Cl)c2)c1 (stereo not shown) [Compound 193, N-(1-(3-chloro-4-fluorophenyl)-2-hydroxyethyl)-1-(5-methyl-2-((pyridin-3-ylmethyl)-amino)pyridin-4-yl)-1H-pyrrole-3-carboxamide] |
| 7.00 to 7.30 | 7.00 to 7.30 | – | – | Cc1cnc(NC2CC2)nc1-n1cc(NC(=O)N[C@H](CO)c2cccc(Cl)c2)cn1 [Compound 3, (S)-1-(1-(3-chlorophenyl)-2-hydroxyethyl)-3-(1-(2-(cyclopropyl-amino)-5-methyl-pyrimidin-4-yl)-1H-pyrazol-4-yl)urea] |
| 7.00 to 7.30 | 7.00 to 7.30 | – | – | Cc1cnc(NC2CC2)nc1-n1cc(C(=O)NC(CO)c2cccc(Cl)c2)cn1 (stereo not shown) [Compound 40, N-(1-(3-chlorophenyl)-2-hydroxyethyl)-1-(2-(cyclopropyl-amino)-5-methylpyrimidin-4-yl)-1H-pyrazole-4-carboxamide] |
| > 7.30 | ≥ 7.30 | – | – | Cc1cnc(NC2CCOC2)nc1-n1cnc(C(=O)NC(CN)c2cccc(Cl)c2)c1 (stereo not shown) [Compound 235, N-(2-amino-1-(3-chlorophenyl)ethyl)-1-(5-methyl-2-((tetrahydrofuran-3-yl)amino)pyrimidin-4-yl)-1H-imidazole-4-carboxamide] |
| > 7.30 | ≥ 7.30 | – | – | Cc1cnc(NC2CCOC2)nc1-n1ccc(C(=O)N[C@H](CO)c2cccc(Cl)c2)c1 (stereo partly drawn) [Compound 151, N-((S)-1-(3-chlorophenyl)-2-hydroxyethyl)-1-(5-methyl-2-((tetrahydrofuran-3-yl)amino)pyrimidin-4-yl)-1H-pyrrole-3-carboxamide] |
| 6.30 to 7.00 | 6.30 to 7.00 | – | – | O=C(Nc1cnn(-c2ccnc(N[C@H]3CC[C@H](O)CC3)n2)c1)N[C@H](CO)c1cccc(Cl)c1 [Compound 14, 1-((S)-1-(3-chlorophenyl)-2-hydroxyethyl)-3-(1-(2-((trans-4-hydroxycyclohexyl)amino)pyrimidin-4-yl)-1H-pyrazol-4-yl)urea] |
| > 7.30 | ≥ 7.30 | – | – | Cc1cnc(Nc2ccc(F)cc2Cl)nc1-n1cnc(C(=O)NC(CN)c2cccc(Cl)c2)c1 (stereo not shown) [Compound 232, N-(2-amino-1-(3-chlorophenyl)ethyl)-1-(2-((2-chloro-4-fluorophenyl)amino)-5-methyl-pyrimidin-4-yl)-1H-imidazole-4-carboxamide] |
| > 7.30 | ≥ 7.30 | – | – | Cc1cnc(Nc2ccc3c(c2)CCO3)nc1-n1ccc(C(=O)NC(CO)c2cccc(Cl)c2)c1 (stereo not shown) [Compound 137, N-(1-(3-chloro-phenyl)-2-hydroxyethyl)-1-(2-((2,3-dihydro-benzofuran-5-yl)-mino)-5-methyl-pyrimidin-4-yl)-1H-pyrrole-3-carboxamide] |
| > 7.30 | ≥ 7.30 | – | – | Cc1cnc(NC2CCOCC2)nc1-n1cnc(C(=O)NCc2ccccc2CN)c1 [Example 283, N-(2-(amino-methyl)benzyl)-1-(5-methyl-2-((tetrahydro-2H-pyran-4-yl)amino)-pyrimidin-4-yl)-1H-imidazole-4-carbox amide] |
| > 7.30 | ≥ 7.30 | – | – | CC[C@@H](CO)Nc1ncc(C)c(-n2ccc(C(=O)NC(CO)c3cccc(Cl)c3)c2)n1 (stereo partly drawn) [Compound 146, N-(1-(3-chloro-phenyl)-2-hydroxy-ethyl)-1-(2-(((S)-1-hydroxybutan-2-yl)amino)-5-methylpyrimidin-4-yl)-1H-pyrrole-3-carboxamide] |
| > 7.30 | ≥ 7.30 | – | – | Cc1cnc(Nc2ccc3c(c2)OCCC3)nc1-n1ccc(C(=O)NC(CO)c2ccccc2)c1 (stereo not shown) [Compound 186, 1-(2-(chroman-7-ylamino)-5-methyl-pyrimidin-4-yl)-N-(2-hydroxy-1-phenylethyl)-1H-pyrrole-3-carboxamide] |
| < 5.60 | 5.60 to 6.30 | – | – | O=C(NC(CO)c1cccc(Cl)c1)c1ccn(-c2ccnc(NC3CCNC3)c2)c1 (stereo not shown) [Compound 145, N-(1-(3-chloro-phenyl)-2-hydroxy-ethyl)-1-(2-(pyrrolidin-3-ylamino)pyridin-4-yl)-1H-pyrrole-3-carboxamide] |
| 7.00 to 7.30 | ≥ 7.30 | – | – | O=C(NC(CO)c1ccccc1)c1ccn(-c2ccnc(Nc3ccc(F)cc3Cl)c2)c1 (stereo not shown) [Compound 82, 1-(2-((2-chloro-4-fluorophenyl)amino)pyridin-4-yl)-N-(2-hydroxy-1-phenylethyl)-1H-pyrrole-3-carboxamide] |
